This assay deals with FGFR. Description: Kinase inhibition, cell-free enzymatic assay. As to conditions: 1 mM ATP. It counts as biochemical.

A value given as a limit tells only on which side of the number the result lay.

In general, IC50 refers to the midpoint of a concentration-inhibition curve. Higher therefore signals lower potency. In turn, `Cc1ccc(F)c(NC(=O)Nc2ccc(-c3cccc4[nH]nc(N)c34)cc2)c1` [RTK Inhibitor, N-[4-(3-amino-1H-indazol-4-yl)phenyl]-N′-(2-fluoro-5-methylphenyl) urea] displayed an IC50 greater than 12.5 µM.

The values above are taken from patent US20130137741A1 (ALCON RESEARCH, LTD., priority 2009, published 2013).
